Molecular target: Kv1.5 (Homo sapiens, UniProt P22460)
Experiment: Kv1.5 inhibition assay (IKur inhibitor assay per cited references)
Type: cell-based
Details: for inhibition at 0.3 µM / Kv1.5% inhibition: at 0.3 μM; for IC50: read-out: Kv1.5 IC50
Description: Assays to determine the degree of activity of a compound as an IKur inhibitor are well known in the art and are described in references such as J. Gen. Physiol. Apr.; 101 (4):513-43, and Br. J. Pharmacol. 1995 May; 115(2):267-74.

Sequence of Kv1.5 (P22460 whole entry): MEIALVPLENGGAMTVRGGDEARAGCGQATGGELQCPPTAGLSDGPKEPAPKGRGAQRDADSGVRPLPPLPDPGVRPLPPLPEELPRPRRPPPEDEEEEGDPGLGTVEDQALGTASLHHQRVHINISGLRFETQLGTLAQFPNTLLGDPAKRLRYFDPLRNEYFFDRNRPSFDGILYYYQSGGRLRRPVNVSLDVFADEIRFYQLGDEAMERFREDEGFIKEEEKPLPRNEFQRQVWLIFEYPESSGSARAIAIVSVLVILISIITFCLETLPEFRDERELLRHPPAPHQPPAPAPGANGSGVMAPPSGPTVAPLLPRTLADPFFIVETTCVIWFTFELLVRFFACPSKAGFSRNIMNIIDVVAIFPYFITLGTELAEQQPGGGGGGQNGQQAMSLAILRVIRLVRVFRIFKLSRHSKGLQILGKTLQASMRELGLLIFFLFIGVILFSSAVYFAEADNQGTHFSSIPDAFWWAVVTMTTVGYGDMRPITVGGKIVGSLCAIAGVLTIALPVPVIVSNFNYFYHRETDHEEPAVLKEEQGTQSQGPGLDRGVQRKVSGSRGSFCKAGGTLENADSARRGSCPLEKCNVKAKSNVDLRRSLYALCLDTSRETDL

## CC1=C(S(=O)(=O)c2ccc(Cl)cc2)C(CC(C)C)n2nc(C(F)(F)F)cc2N1 (single isomer, unassigned) [Example 45 Isomer 2, 6-(4-Chlorophenylsulfonyl)-7-isobutyl-5-methyl-2-(trifluoromethyl)-4,7-dihydropyrazolo[1,5-a]pyrimidine]
  inhibition at 0.3 µM: 48%

## CC1=C(S(=O)(=O)c2ccc(Cl)cc2)C(c2ccc(Cl)cc2)n2nc(C(F)(F)F)cc2N1 (single isomer, unassigned) [Example 31 Isomer 2, 7-(4-Chlorophenyl)-6-(4-chlorophenylsulfonyl)-5-methyl-2-(trifluoromethyl)-4,7-dihydropyrazolo[1,5-a]pyrimidine]
  Kv1.5% inhibition: 81.9%

## CC1=C(S(=O)(=O)c2ccccc2)C(c2ccc(Cl)s2)n2nc(C(F)(F)F)cc2N1 (racemic) [Example 20, 7-(5-Chlorothiophen-2-yl)-5-methyl-6-(phenylsulfonyl)-2-(trifluoromethyl)-4,7-dihydropyrazolo[1,5-a]pyrimidine]
  inhibition at 0.3 µM: 7.8%

## CC1=C(S(=O)(=O)c2ccccc2)C(c2ccc(Cl)cc2)n2nc(C(F)(F)F)cc2N1 (single isomer, unassigned) [Example 26 Isomer 2, 7-(4-Chlorophenyl)-5-methyl-6-(phenylsulfonyl)-2-(trifluoromethyl)-4,7-dihydropyrazolo[1,5-a]pyrimidine]
  Kv1.5% inhibition: 85.9%

## CC1=C(S(=O)(=O)N2CCCC2)C(c2ccc(Cl)c(Cl)c2)n2nc(C)cc2N1 (single isomer, unassigned) [Example 53 Isomer 1, 7-(3,4-Dichlorophenyl)-2,5-dimethyl-6-(pyrrolidin-1-ylsulfonyl)-4,7-dihydropyrazolo[1,5-a]pyrimidine]
  Kv1.5% inhibition: 95.7%

## CC1=C(S(=O)(=O)N2CCCC2)C(c2ccc(Cl)c(Cl)c2)n2nc(C(F)(F)F)cc2N1 (single isomer, unassigned) [Example 59 Isomer 1, 7-(3,4-Dichlorophenyl)-5-methyl-6-(pyrrolidin-1-ylsulfonyl)-2-(trifluoromethyl)-4,7-dihydropyrazolo[1,5-a]pyrimidine]
  inhibition at 0.3 µM: 89.8%

## CC1=C(S(=O)(=O)c2ccc(F)cc2)C(c2ccc(Cl)cc2)n2nc(C(F)(F)F)cc2N1 (single isomer, unassigned) [Example 27 Isomer 1, 7-(4-Chlorophenyl)-6-(4-fluorophenylsulfonyl)-5-methyl-2-(trifluoromethyl)-4,7-dihydropyrazolo[1,5-a]pyrimidine]
  inhibition at 0.3 µM: 47.6%

## CC1=C(S(=O)(=O)c2ccccc2)C(c2ccc(Cl)c(F)c2)n2nc(C)cc2N1 (single isomer, unassigned) [Example 7 Isomer 1, 7-(4-Chloro-3-fluorophenyl)-2,5-dimethyl-6-(phenylsulfonyl)-4,7-dihydropyrazolo[1,5-a]pyrimidine]
  Kv1.5% inhibition: 90.8%

## COc1ccc(S(=O)(=O)C2=C(C)Nc3cc(C)nn3C2c2ccc(Cl)c(Cl)c2)cc1 (single isomer, unassigned) [Example 8 Isomer 1, 7-(3,4-Dichlorophenyl)-6-(4-methoxyphenylsulfonyl)-2,5-dimethyl-4,7-dihydropyrazolo[1,5-a]pyrimidine]
  IC50: 0.023 µM

## CC1=C(S(=O)(=O)c2ccc(Cl)cc2)C(c2ccc(C)c(F)c2)n2nc(C(F)(F)F)cc2N1 (single isomer, unassigned) [Example 42 Isomer 1, 6-(4-Chlorophenylsulfonyl)-7-(3-fluoro-4-methylphenyl)-5-methyl-2-(trifluoromethyl)-4,7-dihydropyrazolo[1,5-a]pyrimidine]
  inhibition at 0.3 µM: 94.5%

## CC1=C(S(=O)(=O)NCc2ccccc2)C(c2ccc(Cl)cc2)n2nc(C)cc2N1 (single isomer, unassigned) [Example 55 Isomer 2, N-Benzyl-7-(4-chlorophenyl)-2,5-dimethyl-4,7-dihydropyrazolo[1,5-a]pyrimidine-6-sulfonamide]
  Kv1.5% inhibition: 17.2%

## CC1=C(S(=O)(=O)c2ccc(Cl)cc2)C(c2ccc(C)c(F)c2)n2nc(C(F)(F)F)cc2N1 (single isomer, unassigned) [Example 42 Isomer 2, 6-(4-Chlorophenylsulfonyl)-7-(3-fluoro-4-methylphenyl)-5-methyl-2-(trifluoromethyl)-4,7-dihydropyrazolo[1,5-a]pyrimidine]
  Kv1.5% inhibition: 92.9%

## CC1=C(S(=O)(=O)N2CCCC2)C(c2ccc(Cl)c(Cl)c2)n2nc(C)cc2N1 (single isomer, unassigned) [Example 53 Isomer 2, 7-(3,4-Dichlorophenyl)-2,5-dimethyl-6-(pyrrolidin-1-ylsulfonyl)-4,7-dihydropyrazolo[1,5-a]pyrimidine]
  Kv1.5% inhibition: 54.7%

## COc1ccc(S(=O)(=O)C2=C(CO)Nc3cc(C(F)(F)F)nn3C2c2ccc(Cl)cc2)cc1 (single isomer, unassigned) [Example 49 Isomer 1, (7-(4-Chlorophenyl)-6-(4-methoxyphenylsulfonyl)-2-(trifluoromethyl)-4,7-dihydropyrazolo[1,5-a]pyrimidin-5-yl)methanol]
  Kv1.5% inhibition: 19.6%

## CC1=C(S(=O)(=O)c2ccc(C)cc2)C(c2ccc(Cl)cc2)n2nc(C(F)(F)F)cc2N1 (single isomer, unassigned) [Example 28 Isomer 2, 7-(4-Chlorophenyl)-5-methyl-6-tosyl-2-(trifluoromethyl)-4,7-dihydropyrazolo[1,5-a]pyrimidine]
  Kv1.5% inhibition: 83.4%

## CC1=C(S(=O)(=O)c2ccc(Cl)cc2)C(c2cc3ccccc3n2C)n2nc(C(F)(F)F)cc2N1 (racemic) [Example 72, 6-(4-Chlorophenylsulfonyl)-5-methyl-7-(1-methyl-1H-indol-2-yl)-2-(trifluoromethyl)-4,7-dihydropyrazolo[1,5-a]pyrimidine]
  inhibition at 0.3 µM: 34%

## COc1cccc(S(=O)(=O)C2=C(C)Nc3cc(C(F)(F)F)nn3C2c2ccc(C)c(F)c2)c1 (single isomer, unassigned) [Example 41 Isomer 1, 7-(3-Fluoro-4-methylphenyl)-6-(3-methoxyphenylsulfonyl)-5-methyl-2-(trifluoromethyl)-4,7-dihydropyrazolo[1,5-a]pyrimidine]
  inhibition at 0.3 µM: 84.4%

## COc1ccc(S(=O)(=O)C2=C(C)Nc3cc(C)nn3C2c2ccc(Cl)cc2)cc1 (single isomer, unassigned) [Example 19 Isomer 2, 7-(4-Chlorophenyl)-6-(4-methoxyphenylsulfonyl)-2,5-dimethyl-4,7-dihydropyrazolo[1,5-a]pyrimidine]
  inhibition at 0.3 µM: 42.3%

## CC1=C(S(=O)(=O)N2CCCC2)C(c2ccc(Cl)cc2)n2nc(C(F)(F)F)cc2N1 (single isomer, unassigned) [Example 67 Isomer 1, 7-(4-Chlorophenyl)-5-methyl-6-(pyrrolidin-1-ylsulfonyl)-2-(trifluoromethyl)-4,7-dihydropyrazolo[1,5-a]pyrimidine]
  inhibition at 0.3 µM: 60%

## CC1=C(S(=O)(=O)C2CCCCC2)C(c2ccc(Cl)cc2)n2nc(C(F)(F)F)cc2N1 (single isomer, unassigned) [Example 29 Isomer 2, 7-(4-Chlorophenyl)-6-(cyclohexylsulfonyl)-5-methyl-2-(trifluoromethyl)-4,7-dihydropyrazolo[1,5-a]pyrimidine]
  inhibition at 0.3 µM: 87.9%

## CC1=C(S(=O)(=O)N2CCOCC2)C(c2ccc(Cl)c(Cl)c2)n2nc(C(F)(F)F)cc2N1 (single isomer, unassigned) [Example 66 Isomer 2, 7-(3,4-Dichlorophenyl)-5-methyl-6-(morpholinosulfonyl)-2-(trifluoromethyl)-4,7-dihydropyrazolo[1,5-a]pyrimidine]
  Kv1.5% inhibition: 49%

## CCCS(=O)(=O)N(C(=O)C1=C(C)Nc2cc(C(F)(F)F)nn2C1c1ccc(Cl)c(Cl)c1)C1CC1 (racemic) [Example 88, N-Cyclopropyl-7-(3,4-dichlorophenyl)-5-methyl-N-(propylsulfonyl)-2-(trifluoromethyl)-4,7-dihydropyrazolo[1,5-a]pyrimidine-6-carboxamide]
  inhibition at 0.3 µM: 71%

## CC1=C(S(=O)(=O)c2ccccc2)C(c2ccc(N3CCCC3)cc2)n2nc(C(F)(F)F)cc2N1 (racemic) [Example 21, 5-Methyl-6-(phenylsulfonyl)-7-(4-(pyrrolidin-1-yl)phenyl)-2-(trifluoromethyl)-4,7-dihydropyrazolo[1,5-a]pyrimidine]
  inhibition at 0.3 µM: 11.1%

## CC1=C(S(=O)(=O)c2ccc(F)cc2)C(c2ccc(Cl)c(Cl)c2)n2nc(C)cc2N1 (single isomer, unassigned) [Example 1 Isomer 2, 7-(3,4-Dichlorophenyl)-6-(4-fluorophenylsulfonyl)-2,5-dimethyl-4,7-dihydropyrazolo[1,5-a]pyrimidine]
  Kv1.5% inhibition: 48%

## CC1=C(S(=O)(=O)NC(C)(C)C)C(c2ccc(Cl)cc2)n2nc(C(F)(F)F)cc2N1 (racemic) [Example 57, N-tert-Butyl-7-(4-chlorophenyl)-5-methyl-2-(trifluoromethyl)-4,7-dihydropyrazolo[1,5-a]pyrimidine-6-sulfonamide]
  inhibition at 0.3 µM: 34.1%

## COc1ccc(S(=O)(=O)C2=C(C)Nc3cc(C)nn3C2c2ccc(Cl)c(Cl)c2)cc1 (single isomer, unassigned) [Example 8 Isomer 2, 7-(3,4-Dichlorophenyl)-6-(4-methoxyphenylsulfonyl)-2,5-dimethyl-4,7-dihydropyrazolo[1,5-a]pyrimidine]
  IC50: 0.174 µM

## COc1ccc(S(=O)(=O)C2=C(C)Nc3cc(C)nn3C2c2nc3ccccc3n2C)cc1 (single isomer, unassigned) [Example 23 Isomer 2, 6-(4-Methoxyphenylsulfonyl)-2,5-dimethyl-7-(1-methyl-1H-benzo[d]imidazol-2-yl)-4,7-dihydropyrazolo[1,5-a]pyrimidine]
  Kv1.5% inhibition: 16.6%

## CC1=C(S(=O)(=O)N2CCN(c3ccccc3)CC2)C(c2ccc(Cl)c(Cl)c2)n2nc(C(F)(F)F)cc2N1 (racemic) [Example 70, 7-(3,4-Dichlorophenyl)-5-methyl-6-(4-phenylpiperazin-1-ylsulfonyl)-2-(trifluoromethyl)-4,7-dihydropyrazolo[1,5-a]pyrimidine]
  inhibition at 0.3 µM: 26%
